Data published in PMC5479551, “Development of a range of fluorescent reagentless biosensors for ATP, based on malonyl-coenzyme A synthetase” (PLoS ONE, 2017).

Key:
Parent (Rho-MatB) = biological target: T1, Parent (Rho-MatB) (Rhodopseudomonas palustris, UniProt Q6ND88, C106A/K488A/Q457C/R286C); assay: Fluorescence titration (excitation 553 nm, emission 571 nm) of 0.5 µM fully purified Rho-MatB with ADP in 50 mM Hepes pH 7.0, 100 mM NaCl, 10 mM MgCl2, 0.3 mg/ml BSA, 20°C, quadratic binding fit.
T1 construct: N-terminal His6-tag, expressed in E. coli; two tetramethylrhodamines (5-IATR) on introduced cysteines
Excerpt: (§1) Data from titrations to measure nucleotide binding were corrected for dilution and analyzed with a quadratic binding curve using Grafit software: F=Fmin+(Fmax−Fmin)×(Kd+L+P−(Kd+L+P)^2−4×P×L)/2×P where P and L are the total concentrations of protein and ligand, respectively, Kd is the dissociation constant, and Fmin and Fmax are the fluorescence intensities of the free and ligand- bound protein, respectively.
(§2) Fig 2 Nucleotide affinity for variants of Rho-MatB. Titration of ATP (circles) and ADP (triangles) to (A) 0.5 µM Rho-MatB T167A, (B) 0.5 μM Rho-MatB T303A; (C) 0.5 μM Rho-MatB S170A. Measurements are shown for one representative experiment and were in 50 mM Hepes pH 7.0, 100 mM NaCl, 10 mM MgCl2, 0.3 mg ml^-1 bovine serum albumin at 20°C. Excitation was at 553 nm, emission at 571 nm. The dissociation constants and fluorescence ratios were obtained using a quadratic binding equation (see Methods) and are listed in Table 2. The drop lines are to indicate the dissociation constants. Data are normalized to the intensity in the absence of nucleotide.
(§3) The affinity for ATP and ADP was determined by measuring the fluorescence at different concentrations of the nucleotide (Fig 2A and 2B). Both variants show similar fluorescent changes with ATP compared to the parent Rho-MatB, but the dissociation constants (Kd) are much higher (Table 2). In contrast, the affinity of ADP was much less affected by the mutations, remaining very weak (Table 2). The change in ATP affinity presumably reflects the importance of hydrogen-bonding interactions with the triphosphate, decreased by mutating to alanine.

S170A Rho-MatB = biological target: T2, S170A Rho-MatB (Rhodopseudomonas palustris, UniProt Q6ND88, C106A/K488A/Q457C/R286C/S170A); assay: as above
T2 construct: His6-tag, Rho-MatB background, two tetramethylrhodamines (5-IATR)
Excerpt: as §1, §2, §3

T167A Rho-MatB = biological target: T3, T167A Rho-MatB (Rhodopseudomonas palustris, UniProt Q6ND88, C106A/K488A/Q457C/R286C/T167A); assay: as above
T3 construct: His6-tag, Rho-MatB background, two tetramethylrhodamines (5-IATR)
Excerpt: as §1, §2, §3

T303A Rho-MatB = biological target: T4, T303A Rho-MatB (Rhodopseudomonas palustris, UniProt Q6ND88, C106A/K488A/Q457C/R286C/T303A); assay: as above
T4 construct: His6-tag, Rho-MatB background, two tetramethylrhodamines (5-IATR)
Excerpt: as §1, §2, §3

pyruvate kinase = biological target: T5, pyruvate kinase (Oryctolagus cuniculus, UniProt P11974); assay: Steady-state pyruvate kinase assay using T303A variant ATP biosensor; format: biochemical, rabbit; conditions: 50 mM HEPES pH 7.2, 100 mM KCl, 10 mM MgCl2, 25°C; 500 μM phosphoenolpyruvate; 1 μM T303A rho-MatB as ATP sensor; read-out: Km for ADP
T5 construct: pyruvate kinase (rabbit muscle from Sigma); purchased Sigma; host or cells: rabbit muscle (tissue-derived)
Method: Steady-state activity measurements of pyruvate kinase (rabbit muscle from Sigma) were obtained using fluorescence on a CLARIOstar microplate reader (BMG Labtech). Assays were set up in 100 μl or 40 μl using 96-well using 384-well polystyrene microplates (low-protein-binding, Corning, USA) respectively.
We show one type of steady-state assay using a weak-binding variant, namely T303A, and a well understood enzyme system. This variant was used to measure the Km for ADP with pyruvate kinase (Fig 7). This measurement would not have been possible with the original reagent, as it requires measurements with hundreds of micromolar ADP. The assay measured formation of ATP as a function of time and made use of calibrations of the fluorescence signal at 0 and 500 μM ADP.
Fig 7 Test assay, measurement of the Km of ADP with pyruvate kinase using T303A variant ATP biosensor. The assay was run in multiwell format in 50 mM HEPES buffer pH 7.2, 100 mM KCl, 10 mM MgCl2, 0.3 mg ml^-1 bovine serum albumin at 25°C. The assay components were 500 μM phosphoenolpyruvate, 0.005 unit ml^-1 pyruvate kinase, 1 μM T303A rho-MatB and the micromolar concentrations of ADP shown on the inset panel for an illustrative set of traces. The data are shown as ATP production rates, using calibrations done at 0–20 μM ATP at 0 μM ADP and with ADP to make 500 μM total nucleotide concentration. […]

T5 sequence (P11974 whole entry): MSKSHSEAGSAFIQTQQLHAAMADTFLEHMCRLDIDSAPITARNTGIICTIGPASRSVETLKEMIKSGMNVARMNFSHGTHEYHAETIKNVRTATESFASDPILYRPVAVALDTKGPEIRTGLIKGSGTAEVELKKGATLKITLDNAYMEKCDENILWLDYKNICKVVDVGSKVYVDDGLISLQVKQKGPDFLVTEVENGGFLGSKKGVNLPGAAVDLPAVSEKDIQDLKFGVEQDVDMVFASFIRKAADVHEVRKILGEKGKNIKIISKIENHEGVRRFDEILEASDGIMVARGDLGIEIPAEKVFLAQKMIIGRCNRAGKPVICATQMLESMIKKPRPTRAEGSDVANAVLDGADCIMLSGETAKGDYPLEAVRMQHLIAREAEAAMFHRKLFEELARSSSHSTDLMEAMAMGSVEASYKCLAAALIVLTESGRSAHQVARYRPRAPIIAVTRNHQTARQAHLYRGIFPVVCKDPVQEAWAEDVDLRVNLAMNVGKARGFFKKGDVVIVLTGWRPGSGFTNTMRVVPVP
T2 sequence (Q6ND88 entry or part of it C106A/S170A/R286C/Q457C/K488A): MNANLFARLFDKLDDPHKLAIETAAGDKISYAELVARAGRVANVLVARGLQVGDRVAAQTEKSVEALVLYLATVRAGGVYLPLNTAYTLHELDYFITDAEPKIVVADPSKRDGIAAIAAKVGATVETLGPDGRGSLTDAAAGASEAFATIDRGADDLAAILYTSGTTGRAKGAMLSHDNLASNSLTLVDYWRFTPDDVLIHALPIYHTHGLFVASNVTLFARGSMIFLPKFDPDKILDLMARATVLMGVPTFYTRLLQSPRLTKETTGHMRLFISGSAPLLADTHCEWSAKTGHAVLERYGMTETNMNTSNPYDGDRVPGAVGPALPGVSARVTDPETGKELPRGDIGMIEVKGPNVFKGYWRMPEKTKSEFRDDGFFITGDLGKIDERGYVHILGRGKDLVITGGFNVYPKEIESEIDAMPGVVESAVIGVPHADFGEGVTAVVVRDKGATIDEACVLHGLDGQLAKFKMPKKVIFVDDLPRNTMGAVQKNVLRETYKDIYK
T3 sequence (Q6ND88 entry or part of it C106A/T167A/R286C/Q457C/K488A): as the sequence (Q6ND88 entry or part of it C106A/S170A/R286C/Q457C/K488A) above, with T167A, A170S counted along it
T1 sequence (Q6ND88 entry or part of it C106A/R286C/Q457C/K488A): as the sequence (Q6ND88 entry or part of it C106A/S170A/R286C/Q457C/K488A) above, with A170S counted along it
T4 sequence (Q6ND88 entry or part of it C106A/R286C/T303A/Q457C/K488A): as the sequence (Q6ND88 entry or part of it C106A/S170A/R286C/Q457C/K488A) above, with A170S, T303A counted along it

Compound Nc1ncnc2c1ncn2[C@@H]1O[C@H](COP(=O)(O)OP(=O)(O)O)[C@@H](O)[C@H]1O [ADP, adenosine 5'-diphosphate] has a Kd (Parent (Rho-MatB)) of 428 ± 50 µM, a Kd (S170A Rho-MatB) of 887 ± 25 µM and a Kd (T167A Rho-MatB) of 900 ± 28 µM. For the same compound, the Kd (T303A Rho-MatB) was 1840 ± 114 µM.
Nc1ncnc2c1ncn2[C@@H]1O[C@H](COP(=O)(O)OP(=O)(O)O)[C@@H](O)[C@H]1O [ADP] gave a Km (pyruvate kinase) of 56 ± 4 µM.
